In patent US8466188B2, “Use of spiro-oxindole compounds as therapeutic agents” (Xenon Pharmaceuticals Inc., priority 2006, dated 2013):

Row | melting point | Compound
1 | 174 to 176 °C | CN(C)c1ccc(-c2cccc3c2C2(COc4cc5c(cc42)OCO5)C(=O)N3Cc2ccc(C(F)(F)F)o2)cn1 (centres unmarked) [Example 4.7, 4′-[6-(dimethylamino)pyridin-3-yl]-1′-{[5-(trifluoromethyl)-2-furyl]methyl}spiro[furo[2,3-f][1,3]benzodioxole-7,3′-indol]-2′(1′H)-one]
2 | 185 to 187 °C | O=C1Nc2cccc(-c3cncnc3)c2C12COc1cc3c(cc12)OCO3 (centres unmarked) [Example 4.8, 4′-pyrimidin-5-ylspiro[furo[2,3-f][1,3]benzodioxole-7,3′-indol]-2′(1′H)-one]
3 | 195 to 197 °C | O=C1N(Cc2ccccn2)c2cccc(-c3ccoc3)c2C12COc1cc3c(cc12)CCO3 (centres unmarked) [Example 4.9, 4′-(3-furyl)-1′-(pyridin-2-ylmethyl)-5,6-dihydrospiro[benzo[1,2-b:5,4-b′]difuran-3,3′-indol]-2′(1′H)-one]
4 | > 200 °C | O=C1N(Cc2ccccn2)c2cccc(-c3cccnc3)c2C12COc1cc3c(cc12)CCO3 (centres unmarked) [Example 4.11, 4′-pyridin-3-yl-1′-(pyridin-2-ylmethyl)-5,6-dihydrospiro[benzo[1,2-b:5,4-b′]difuran-3,3′-indol]-2′(1′H)-one]
5 | 167 to 169 °C | O=C1N(Cc2ccc(C(F)(F)F)o2)c2cccc(-c3ccoc3)c2C12COc1cc3c(cc12)CCO3 (centres unmarked) [Example 4.12, 4′-(3-furyl)-1′-{[5-(trifluoromethyl)-2-furyl]methyl}-5,6-dihydrospiro[benzo[1,2-b:5,4-b′]difuran-3,3′-indol]-2′(1′H)-one]
6 | 263 to 266 °C | O=C1N(Cc2ccc(C(F)(F)F)o2)c2cccc(-c3cncnc3)c2C12COc1cc3c(cc12)CCO3 (centres unmarked) [Example 4.14, 4′-pyrimidin-5-yl-1′-{[5-(trifluoromethyl)-2-furyl]methyl}-5,6-dihydrospiro[benzo[1,2-b:5,4-b′]difuran-3,3′-indol]-2′(1′H)-one]
7 | 229 to 230 °C | O=C(CN1C(=O)C2(COc3cc4c(cc32)CCO4)c2c(-c3cncnc3)cccc21)Nc1ccccc1F (centres unmarked) [Example 4.20, N-(2-fluorophenyl)-2-(2′-oxo-4′-pyrimidin-5-yl-5,6-dihydrospiro[benzo[1,2-b:5,4-b′]difuran-3,3′-indol]-1′(2′H)-yl)acetamide]
8 | 65 to 75 °C | CC(C)(C)OC(=O)N1CCC(CN2C(=O)C3(COc4cc5c(cc43)C(C)(C)CO5)c3ccccc32)CC1 (centres unmarked) [Example 10.18, tert-butyl 4-[(5,5-dimethyl-2′-oxo-5,6-dihydrospiro[benzo[1,2-b:5,4-b′]difuran-3,3′-indol]-1′(2′H)-yl)methyl]piperidine-1-carboxylate]
9 | 155 to 160 °C | CC1(C)COc2cc3c(cc21)C1(CO3)C(=O)N(Cc2ccc(C(F)(F)F)o2)c2ccccc21 (centres unmarked) [Example 10.21, 5,5-dimethyl-1′-{[5-(trifluoromethyl)-2-furyl]methyl}-5,6-dihydrospiro[benzo[1,2-b:5,4-b′]difuran-3,3′-indol]-2′(1′H)-one]
10 | 174 to 175 °C | O=C1N(Cc2ccc(F)cc2Cl)c2ccccc2C12COc1cc3c(cc12)OCO3 (centres unmarked) [Example 10.30, 1′-(2-chloro-4-fluorobenzyl)spiro[furo[2,3-f][1,3]benzodioxole-7,3′-indol]-2′(1′H)-one]
11 | 111 to 113 °C | O=C1N(CCCC2CC2)c2ccccc2C12COc1cc3c(cc12)OCO3 (centres unmarked) [Example 10.32, 1′-(3-cyclopropylpropyl)spiro[furo[2,3-f][1,3]benzodioxole-7,3′-indol]-2′(1′H)-one]
12 | 119 to 120 °C | CCCCN1C(=O)C2(COc3cc4c(cc32)OCO4)c2ccccc21 (centres unmarked) [Example 10.33, 1′-butylspiro[furo[2,3-f][1,3]benzodioxole-7,3′-indol]-2′(1′H)-one]
13 | 159 to 161 °C | Cc1oncc1CN1C(=O)C2(COc3cc4c(cc32)OCO4)c2ccccc21 (centres unmarked) [Example 10.34, 1′-[(5-methylisoxazol-4-yl)methyl]spiro[furo[2,3-f][1,3]benzodioxole-7,3′indol]-2′(1′H)-one]
14 | 142 to 144 °C | O=C1N(CC2CCOCC2)c2ccccc2C12COc1cc3c(cc12)OCO3 (centres unmarked) [Example 10.35, 1′-(tetrahydro-2H-pyran-4-ylmethyl)spiro[furo[2,3-f][1,3]benzodioxole-7,3′-indol]-2′(1′H)-one]
15 | 130 to 135 °C | O=C1N(Cc2ccccc2OC(F)(F)F)c2ccccc2C12COc1cc3c(cc12)OCO3 (centres unmarked) [Example 10.36, 1′[2-(trifluoromethoxy)benzyl]spiro[furo[2,3-f][1,3]benzodioxole-7,3′-indol]-2′(1′H)-one]
16 | 88 to 91 °C | O=C1N(Cc2cccc(OC(F)(F)F)c2)c2ccccc2C12COc1cc3c(cc12)OCO3 (centres unmarked) [Example 10.37, 1′[3-(trifluoromethoxy)benzyl]spiro[furo[2,3-f][1,3]benzodioxole-7,3′-indol]-2′(1′H)-one]
17 | 99 to 101 °C | O=C1N(Cc2ccc(OC(F)(F)F)cc2)c2ccccc2C12COc1cc3c(cc12)OCO3 (centres unmarked) [Example 10.38, 1′[4-(trifluoromethoxy)benzyl]spiro[furo[2,3-f][1,3]benzodioxole-7,3′-indol]-2′(1′H)-one]
18 | 142 to 144 °C | CN1C(=O)C2(COc3cc4c(cc32)OCO4)c2ccccc21 (centres unmarked) [Example 10.39, 1′-methylspiro[furo[2,3-f][1,3]benzodioxole-7,3′-indol]-2′(1′H)-one]

Row | melting point | Compound
19 | 158 to 160 °C | CCCN1C(=O)C2(COc3cc4c(cc32)OCO4)c2ccccc21 (centres unmarked) [Example 10.40, 1′-Propylspiro[furo[2,3-f][1,3]benzodioxole-7,3′-indol]-2′(1′H)-one]
20 | 96 to 98 °C | CC(C)(C)OC(=O)N1CCC(CN2C(=O)C3(COc4cc5c(cc43)CCO5)c3ccccc32)CC1 (centres unmarked) [Example 10.43, tert-butyl 4-[(2′-oxo-5,6-dihydrospiro[benzo[1,2-b:5,4-b′]difuran-3,3′-indol]-1′(2′H)-yl)methyl]piperidine 1-carboxylate]
21 | 120 to 121 °C | COc1ccc(CN2C(=O)C3(COc4cc5c(cc43)CCO5)c3ccccc32)cc1 (centres unmarked) [Example 10.46, 1′-(4-methoxybenzyl)-5,6-dihydrospiro[benzo[1,2-b:5,4-b′]difuran-3,3′-indol]-2′(1′H)-one]
22 | 182 to 184 °C | O=C1N(Cc2ccc(C(F)(F)F)o2)c2cccc(Br)c2C12COc1cc3c(cc12)CCO3 (centres unmarked) [Example 10.48, 4′-bromo-1′-{[5-(trifluoromethyl)-2-furyl]methyl}-5,6-dihydrospiro[benzo[1,2-b:5,4-b′]difuran-3,3′-indol]-2′(1′H)-one]
23 | 165 to 167 °C | Cc1noc(C)c1CN1C(=O)C2(COc3cc4c(cc32)OCO4)c2ccccc21 (centres unmarked) [Example 10.51, 1′-[(3,5-dimethylisoxazol-4-yl)methyl]spiro[furo[2,3-f][1,3]benzodioxole-7,3′-indol]-2′(1′H)-one]
24 | 110 to 112 °C | O=C1N(Cc2ccco2)c2ccccc2C12COc1cc3c(cc12)OCO3 (centres unmarked) [Example 10.52, 1′-(2-furylmethyl)spiro[furo[2,3-f][1,3]benzodioxole-7,3′-indol]-2′(1′H)-one]
25 | 205 to 207 °C | O=C1N(Cc2ccc(-c3cccc(Cl)c3)o2)c2ccccc2C12COc1cc3c(cc12)OCO3 (centres unmarked) [Example 10.56, 1′-{[5-(3-chlorophenyl)-2-furyl]methyl}spiro[furo[2,3-f][1,3]benzodioxole-7,3′-indol]-2′(1′H)-one]
26 | 144 to 146 °C | O=C1N(CCCCl)c2ccccc2C12COc1cc3c(cc12)OCO3 (centres unmarked) [Example 10.57, 1′-(3-chloropropyl)spiro[furo[2,3-f][1,3]benzodioxole-7,3′-indol]-2′(1′H)-one]
27 | 118 to 120 °C | CC(C)c1nc(CN2C(=O)C3(COc4cc5c(cc43)OCO5)c3ccccc32)co1 (centres unmarked) [Example 10.58, 1′-[(2-isopropyl-1,3-oxazol-4-yl)methyl]spiro[furo[2,3-f][1,3]benzodioxole-7,3′-indol]-2′(1′H)-one]
28 | 142 to 144 °C | O=C1N(Cc2ccc(Cl)s2)c2ccc(F)cc2C12COc1cc3c(cc12)OCO3 (centres unmarked) [Example 10.61, 1′-[(5-chloro-2-thienyl)methyl]-5′-fluorospiro[furo[2,3-f][1,3]benzodioxole-7,3′-indol]-2′(1′H)-one]
29 | 148 to 150 °C | O=C1N(Cc2ccc(Cl)o2)c2ccccc2C12COc1cc3c(cc12)OCO3 (centres unmarked) [Example 10.62, 1′-[(5-chloro-2-furyl)methyl]spiro[furo[2,3-f][1,3]benzodioxole-7,3′-indol]-2′(1′H)-one]
30 | 210 to 214 °C | CN1C(C)(C)CC(O)(CN2C(=O)C3(COc4cc5c(cc43)OCO5)c3ccccc32)CC1(C)C (centres unmarked) [Example 10.63, 1′-[(4-hydroxy-1,2,2,6,6-pentamethylpiperidin-4-yl)methyl]spiro[furo[2,3-f][1,3]benzodioxole-7,3′-indol]-2′(1′H)-one]
31 | 148 to 150 °C | O=C1N(Cc2ccc(-c3ccccc3Cl)o2)c2ccccc2C12COc1cc3c(cc12)OCO3 (centres unmarked) [Example 10.64, 1′-{[5-(2-chlorophenyl)-2-furyl]methyl}spiro[furo[2,3-f][1,3]benzodioxole-7,3′-indol]-2′(1′H)-one]
32 | 117 to 119 °C | Cc1ccc(CN2C(=O)C3(COc4cc5c(cc43)OCO5)c3ccccc32)o1 (centres unmarked) [Example 10.65, 1′-[(5-methyl-2-furyl)methyl]spiro[furo[2,3-f][1,3]benzodioxole-7,3′-indol]-2′(1′H)-one]
33 | 145 to 146 °C | O=C1N(Cc2ccc(Cl)s2)c2ccccc2C12COc1cc3c(cc12)OCO3 (centres unmarked) [Example 10.67, 1′-[(5-chloro-2-thienyl)methyl]spiro[furo[2,3-f][1,3]benzodioxole-7,3′-indol]-2′(1′H)-one]
34 | 225 to 227 °C | O=C1N(Cc2sc(C(F)(F)F)cc2O)c2ccccc2C12COc1cc3c(cc12)OCO3 (centres unmarked) [Example 10.68, 1′-{[3-hydroxy-5-(trifluoromethyl)-2-thienyl]methyl}spiro[furo[2,3-f][1,3]benzodioxole-7,3′-indol]-2′(1′H)-one]
35 | 195 to 198 °C | O=C1N(Cc2cnc(Cl)s2)c2ccccc2C12COc1cc3c(cc12)OCO3 (centres unmarked) [Example 10.70, 1′[(2-chloro-1,3-thiazol-5-yl)methyl]spiro[furo[2,3-f][1,3]benzodioxole-7,3′-indol]-2′(1′H)one]
